The assay concerns HIV-1 (RF). The assay is described as follows: HIV RNA assay: microplate based compound evaluation in HIV-1 infected MT-2 cells. It is filed as cell-based. As to conditions: Human immunodeficiency virus 1, MT2; HIV-1 (RF) infected MT-2 cells; value used to standardize the virus inoculum; read-out: IC90 (concentration of compound required to reduce the HIV RNA level by 90%). As to the method:
Plasmid pDAB 72 containing both gag and pol sequences of BH10 (bp 113-1816) cloned into PTZ 19R was prepared according to Erickson-Vitanen et al. AIDS Research and Human Retroviruses 1989, 5, 577. The plasmid was linearized with Bam HI prior to the generation of in vitro RNA transcripts using the Riboprobe Gemini system II kit (Promega) with T7 RNA polymerase. Synthesized RNA was purified by treatment with RNase free DNAse (Promega), phenol-chloroform extraction, and ethanol precipitation. RNA transcripts were dissolved in water, and stored at −70EC. The concentration of RNA was determined from the A260.
Biotinylated capture probes were purified by HPLC after synthesis on an Applied Biosystems (Foster city, Calif.) DNA synthesizer by addition of biotin to the 5N terminal end of the oligonucleotide, using the biotin-phosphoramidite reagent of Cocuzza, Tet. Lett. 1989, 30, 6287. […]
MT-2 and MT-4 cells were maintained in RPMI 1640 supplemented with 5% fetal calf serum (FCS) for MT-2 cells or 10% FCS for MT-4 cells, 2 mM L-glutamine and 50 μg/mL gentamycin, all from Gibco. […] Infectious titers of HIV-1(RF) stocks were 1-3×10^7 PFU (plaque forming units)/mL as measured by plaque assay on MT-2 cells (see below). […]

Here are results for one molecule from patent publication US20060128634A1, “Alpha, alpha-disubstituted benzylglycine derivatives as HIV protease inhibitors” (priority 2002, published 2006).

Converted amounts (≈) assume the structure as drawn.

Take `Nc1ccn([C@H]2CC[C@@H](CO)O2)c(=O)n1` [ddC, dideoxycytidine]: the IC90 was found to be 0.2 µg/mL (≈ 0.947 µM).
